Results published in patent publication US20130005811A1, “ANTIMICROBIAL TREATMENT FOR SEEDS AND SPROUTS” (priority 2010, published 2013).

Tests used:
[1] = tested on: Acidovorax avenae subsp. citrulli (Aac)
Description: (§1) The ability of combinations of levulinic acid and SDS to kill a range of plant pathogenic bacteria in vitro was tested. Nutrient broth liquid cultures were supplemented with 3%, 1%, or 0.5% levulinic acid. A range of gram-negative plant pathogenic bacteria was screened, including Acidovorax avenae subsp. citrulli, Erwinia (Pectobacterium) carotovora subsp. carotovora, Xanthomonas campestris pv. campestris, Xanthomonas axonopodis pv. vesicatoria and Pantoea ananatis subsp. ananatis. […] Each bacterium was evaluated 10 times and the experiment was repeated.
(§2) The effect of levulinic acid on in vitro growth of a range of phytobacteria was determined using a Microbiology Reader BioscreenC (Transgalactic Ltd.; Helsinki, Finland) according to manufacturer's instructions. Briefly, inoculum was generated by transferring one colony of each bacterium from a three-day-old nutrient agar culture (Difco) to 5 ml of nutrient broth. Broth cultures were incubated overnight at 30° C. with continuous agitation and cells from 1 ml of broth were harvested by centrifugation (16,200×g) for 3 min and adjusted to about 3.0×10^8 CFU/ml (ODA600 nm=0.3) spectrophotometrically (Spectronic 20, Bausch and Lomb, Rochester, N.Y.). Cell suspensions were ten-fold serially diluted to desired concentrations, and 10 μl of each suspension was transferred to a single well in a honeycomb plate (Oy Growth Curves AB Ltd., Helsinki, Finland) containing 190 μl of nutrient broth amended with 3%, 1% or 0.5% levulinic acid. This yielded a starting suspension of about 1.5×10^4 CFU/ml. The microplate containing ten replicates of each bacterium×levulinic acid concentration treatment was incubated at 30° C. with continuous agitation in a BioscreenC MBR incubator/reader. Optical density measurements of each well were taken at a wavelength of 600 nm at 30 min intervals for 30 hr.

[2] = tested on: Erwinia carotovora subsp. carotovora (ECC)
Description: as §1, §2

Pantoea ananatis (PNA) = tested on: Pantoea ananatis (PNA)
Description: as §1, §2

[3] = tested on: Xanthomonas campestris pv. campestris (XCC)
Description: as §1, §2

[4] = tested on: Xanthomonas campestris pv. vesicatoria (XCV)
Description: as §1, §2

[5] = tested on: Clavibacter michiganenses subsp. michiganenses (CMM); details: 0.5% levulinic acid, 30° C., 30 hr, OD 600 nm
Description: as §2

watermelon seeds = assay: Germination of treated watermelon seeds; details: 0.05% SDS alone (negative control)
[6] = 0.5% levulinic acid, 30° C., 30 hr, OD 600 nm

CC(=O)CCC(=O)O [levulinic acid, Levulinic acid]
Kind of action (broth cultures plated after incubation) [1]: bactericidal rather than bacteristatic
Number of viable cells in the liquid broth ([1]; 0.5% levulinic acid): killed the pathogens
In vitro growth in nutrient broth [1, 6]: prevented the growth
Kind of action (broth cultures plated after incubation) [2]: bactericidal rather than bacteristatic
Number of viable cells in the liquid broth ([2]; 0.5% levulinic acid): killed the pathogens
In vitro growth in nutrient broth [2, 6]: prevented the growth
Kind of action (broth cultures plated after incubation) (Pantoea ananatis (PNA)): bactericidal rather than bacteristatic
Number of viable cells in the liquid broth (Pantoea ananatis (PNA); 0.5% levulinic acid): killed the pathogens
In vitro growth in nutrient broth (Pantoea ananatis (PNA); [6]): prevented the growth
Kind of action (broth cultures plated after incubation) [3]: bactericidal rather than bacteristatic
Number of viable cells in the liquid broth ([3]; 0.5% levulinic acid): killed the pathogens
In vitro growth in nutrient broth [3, 6]: prevented the growth
Kind of action (broth cultures plated after incubation) [4]: bactericidal rather than bacteristatic
Number of viable cells in the liquid broth ([4]; 0.5% levulinic acid): killed the pathogens
In vitro growth in nutrient broth [4, 6]: prevented the growth
In vitro growth in nutrient broth [5]: prevented the growth

CCCCCCCCCCCCOS(=O)(=O)[O-].[Na+] [0.05% SDS, sodium dodecyl sulfate]
Germination percentage (watermelon seeds): 89.25%
